Measurements reported in article PMC11662161 (Neuro-Oncology Advances, 2024).
Several values for one entry are separate records, joined by “and”; a condition that tells them apart may be missing. Identical values can stand only once. Like-named read-outs stand apart in the source and are kept apart here.

Columns and labels:
[1] = test system: patients with recurrent HGG; assay: Phase II trial NCT01967810: neurocognitive function testing (HVLT-R, TMT A/B, COWA; reliable change index); type: in vivo, human; conditions: for neurocognitive function stable or improved (RCI), across the battery of tests: end of treatment visit
Procedure: The end of treatment assessment was only performed if no neurocognitive assessment was done within 30 (± 3) days. Information regarding the patient’s demographic background was collected. Neurocognitive test administrators were trained and provided with a manual to ensure standardized test administration. Neurocognitive test results were evaluated and read centrally. Three domains of neurocognitive function were measured as exploratory endpoints in this study: memory, visuomotor scanning speed (eg, complex visual scanning with a motor component), and executive function (eg, mental flexibility). The neurocognitive battery included the following tests: Hopkins Verbal Learning Tests—Revised (HVLT-R Total Recall, Delayed Recall, Delayed Recognition), Trail Making Test Part A and Part B[18] (TMBTA, TMBTB), and Controlled Oral Word Association (COWA).[19] […]

[2] = test system: recurrent high-grade glioma (HGG); conditions: ref Dmello et al., submitted to Neuro-Oncology Advances, cited from earlier work
Text: Variable response to paclitaxel between patients is a well-known phenomenon for several cancers, with ~50% of patients being susceptible to this drug as a monotherapy. We recently reported endoplasmic reticulum translocon complex protein SSR3 as a predictive biomarker for glioma and breast cancer susceptibility to this drug.[22] In a companion manuscript (Dmello et al., submitted to Neuro-Oncology Advances), we report an analysis of available tumor samples from this phase II trial (NCT01967810), where we evaluated the correlation with baseline SSR3 expression with OS on this cohort. This study ...

[3] = test system: recurrent high-grade glioma (HGG); assay: Phase II trial NCT01967810: efficacy (RANO response, PFS, OS); type: in vivo, human; conditions: for duration (of response) rate: identical at 3, 6 and 12 months
Text: The protocol was reviewed and approved by the institutional review board of each participating center. All patients gave written informed consent for trial participation. According to 2007 WHO classification used in this study, HGG included grade 3 AGs such as anaplastic astrocytomas (AAs), anaplastic oligodendrogliomas (AOs), and anaplastic oligoastrocytomas (AOAs), as well as grade 4 GBM.[16] […] Additionally, a Karnofsky Performance Scale (KPS) score ≥ 80, neurologic stability with patients receiving stable doses of corticosteroids and anticonvulsants, and normal hepatic, renal, and hematologic function with ≥ 3 months of expected survival were requirements for inclusion. In patients with gliomas refractory to bevacizumab, radiological confirmation of tumor progression during bevacizumab therapy was necessary.
Gadolinium-enhanced magnetic resonance imaging of the brain was used to evaluate disease extent beginning at baseline and continued every two treatment cycles (ie, every 6 ± 2 weeks) until disease progression or unacceptable treatment toxicity. […] The Response Assessment in Neuro-Oncology (RANO) was utilized for two-dimensional intracranial tumor assessment.[17]
The primary objectives of the study were to determine (1) the objective response rate (ORR) in bevacizumab-naïve recurrent GBM patients (Arm 1), (2) progression-free survival rate at 3 months (PFS3) in the bevacizumab-refractory recurrent GBM patients (Arm 2), and (3) ORR in recurrent AG patients (Arm 3). The arms were predefined. Bevacizumab was not continued in bevacizumab-refractory patients.
The secondary objectives of this study were to determine (1) the ORR in Arm 2; (2) number of patients without progression at 3, 6, and 12 months in Arms 1 and 3; (3) number of patients without progression at 6 and 12 months in Arm 2; (4) median progression-free survival in each arm; (5) median duration of response in each arm; (6) median overall survival (OS) in each arm; (7) safety and tolerability; and (8) plasma pharmacokinetic profile.
ORR was defined as the proportion of patients with a CR or PR. The assessment was made according to RANO criteria based on the investigator’s assessment.[17] The ORR was the primary endpoint for Arms 1 and 3 and a secondary endpoint for Arm 2. ORR for each arm was calculated, and a 2-sided 95% confidence interval was provided using the exact method based on the binomial distribution. PFS was defined as the time from study enrollment to documented disease progression as determined by the local investigator, clear clinical progression in the absence of a brain MRI determination of progression, or death from any cause, whichever occurred first. PFS was the primary endpoint for Arm 2 and a secondary endpoint for Arms 1 and 3. Patients with a clinical determination of progression underwent an MRI assessment. If a clinical determination of progression for a patient was confirmed by an MRI, the date of the MRI was considered as the progression date for that patient. The data for patients who were still alive and free from disease progression at the time of data cutoff were administratively censored on the last assessment (or, if no post-baseline tumor assessment, at the time of first dose plus 1 day). Data for patients who were lost to follow-up prior to documented disease progression were censored at the last disease assessment date when the patient was known to be disease progression-free. Kaplan–Meier methodology was used to estimate the 3-month PFS rate, and 95% confidence intervals for PFS rate were computed using Greenwood’s formula by arms. In addition, the median PFS was calculated for each arm.

[4] = test system: brain metastases from breast tumors and other advanced solid tumors; conditions: doses ≥ 420 mg/m^2, cited from earlier work
Text: (§1) The overall safety profile was favorable and consistent with the known side effect profile of unconjugated paclitaxel.

[5] = test system: recurrent glioma tumors; conditions: following a single intravenous infusion; cited from earlier work
Text: as §1

[6] = test system: patients with recurrent HGG; assay: Phase II trial NCT01967810: safety and tolerability (adverse events, NCI CTCAE v4.0; treatment discontinuation)
Procedure: Subsequently, a total of 69 patients were enrolled at 600 mg/m^2 as a starting dose. Dose reductions or delays were allowed if toxicity was observed. Patients were monitored for a minimum of 1 h after the completion of each infusion.
Dose reductions were mandatory for all patients who experienced any (life-threatening) Grade 4 toxicity, and for selected Grade 3 toxicities, such as Grade 3 pneumonitis, Grade 3 peripheral neuropathy or CNS toxicity, or Grade 3 cardiac adverse events (AEs).
Evaluation of safety included the analysis of AEs and the analysis of laboratory and vital signs data using the safety population. Verbatim descriptions of AEs were mapped according to the Medical Dictionary for Regulatory Activities (MedDRA) v17.0 or later thesaurus terms and graded according to the NCI CTCAE v4.0. […] Laboratory data was analyzed with shift tables and summaries of change from baseline to maximum post-treatment value based on local lab normal ranges. Change from baseline in vital signs were summarized. Neurocognitive function test data was analyzed by descriptive statistics (mean, SD and median) and change in neurocognitive function from baseline to each follow-up time point was categorized as improved, stable, or declined based on the reliable change index (RCI) for each test.

[7] = % of patients, N = 73, all arms
[8] = % of patients, N = 73, table cell prints n (%)

paclitaxel trevatide [ANG1005]
neurocognitive function stable or improved (RCI), across the battery of tests ([1]; % of patients, Arm 1 (n = 5)): 40–100%
CTB composite score: decline in neurocognitive function ([1]; % of patients, Arm 1, EOT): 40%
CTB composite score: stable neurocognitive function ([1]; % of patients, Arm 1, EOT): 60%
neurocognitive function stable or improved (RCI), across the battery of tests ([1]; % of patients, Arm 2 (n = 4)): 50–75%
CTB composite score: decline in neurocognitive function ([1]; % of patients, Arm 2, EOT): 50%
CTB composite score: stable neurocognitive function ([1]; % of patients, Arm 2, EOT): 50%
neurocognitive function stable or improved (RCI), across the battery of tests ([1]; % of patients, Arm 3 (n = 13)): 69–100%
CTB composite score: decline in neurocognitive function ([1]; % of patients, Arm 3, EOT): 25%
CTB composite score: improved neurocognitive function ([1]; % of patients, Arm 3, EOT): 8%
CTB composite score: stable neurocognitive function ([1]; % of patients, Arm 3, EOT): 67%
CTB composite score: improved neurocognitive function ([1]; Arm 1, EOT): no patients
CTB composite score: improved neurocognitive function ([1]; Arm 2, EOT): no patients
median OS ([2]; patients with high SSR3 expression, 95% CI 14.59, NA, P = .2 vs low): 18 months
median OS ([2]; patients with low SSR3 expression, 95% CI 5.41, NA): 9 months
PFS rate ([3]; 3 months, Arm 1, 95% CI: 12.2, 56.4): 33.3%
PFS rate ([3]; 3 months, Arm 3, 95% CI: 18.9, 53.0): 35.7%
median duration of response ([3]; 3 responders (2 in Arm 1, 1 in Arm 3), 95% CI: 2.1, NA): 13.4 months
PFS rate ([3]; 6 months, Arm 1, 95% CI: 8.3, 49.6): 26.7%
PFS rate ([3]; 6 months, Arm 3, 95% CI: 18.9, 53.0): 35.7%
PFS rate ([3]; 12 months, Arm 1, 95% CI: 2.2, 34.6): 13.3%
PFS rate ([3]; 12 months, Arm 3, 95% CI: 11.8, 44.4): 26.8%
clinical benefit rate (SD or better) ([3]; Arm 1, mITT): 46.6%
progressive disease ([3]; Arm 1, mITT, 8 subjects): 53.3%
median OS ([3]; Arm 1, mITT, 95% CI: 3.4, 14.6): 13.4 months
median OS ([3]; Arm 1, safety population, 95% CI: 3.06, 13.67): 6.74 months
median duration of response ([3]; Arm 1, 95% CI: 2.1, 13.4): 7.75 months
duration (of response) rate ([3]; Arm 1, 95% CI: 0.6, 91.0): 50.0%
responders (CR or PR) ([3]; Arm 2 (bevacizumab-refractory GBM), mITT, secondary endpoint): none
PFS rates ([3]; Arm 2, at each time point (3, 6, 12 months), PFS3 is the primary endpoint): 0
clinical benefit rate (SD or better) ([3]; Arm 2, mITT): 22.2%
subjects who progressed or died ([3]; Arm 2, mITT): All subjects
progressive disease ([3]; Arm 2, mITT, 7 subjects): 77.8%
median OS ([3]; Arm 2, mITT, 95% CI: 1.9, 9.7): 5.8 months
median OS ([3]; Arm 2, safety population, 95% CI: 1.94, 6.67): 3.02 months
median duration of response ([3]; Arm 3): not reached
clinical benefit rate (SD or better) ([3]; Arm 3, mITT): 53.6%
progressive disease ([3]; Arm 3, mITT, 13 subjects): 46.4%
median OS ([3]; Arm 3, mITT, 95% CI: 10.7, 35.3): 18.2 months
median OS ([3]; Arm 3, safety population, 95% CI: 8.67, 21.95): 16.03 months
duration (of response) rate ([3]; Arm 3, 95% CI: 100,100): 100%
overall median PFS ([3]; across all 3 arms, mITT, investigator-assessed, 95% CI: 1.4, 2.1): 1.4 months
overall ORR (CR or PR, RANO, investigator) ([3]; mITT n = 52, all arms, 3 subjects, 95% CI: 1.2, 15.9): 5.8%
subjects who progressed or died ([3]; mITT n = 52, 47 subjects): 90.4%
overall median OS ([3]; mITT population n = 52, 95% CI: 7.03, 14.78): 12.94 months
progressive disease ([3]; overall, mITT n = 52, 28 subjects): 53.8%
duration (of response) rate ([3]; overall, 95% CI: 5.4, 94.5): 66.7%
overall median OS ([3]; safety population n = 73, 95% CI: 6.34, 12.94): 8.67 months
overall PR, non-CNS peripheral metastases response ([4]; 4/16 patients): 25%
overall partial response (PR), CNS response ([4]; 4/18 patients): 22%
stable disease (SD), CNS response ([4]; 10/18 patients): 56%
transport across the BBB and tumor penetration [5]: tumor penetration at therapeutic concentrations
most common AEs: alopecia [6, 7]: 31.5% and 32%
most common AEs: fatigue [6, 7]: 30.1% and 30%
most common AEs: hematologic [6, 7]: 32.9%
most commonly reported AEs: neutropenia [6, 7]: 33%
patients with a Grade 5 SAE ([6]; % of patients, N = 73, 3 patients): 4.1%
patients with a Grade 4 SAE ([6]; % of patients, N = 73, 9 patients): 12.3%
patients with a Grade 3 SAE ([6]; % of patients, N = 73, 19 patients): 26.0%
related AEs by SOC: gastrointestinal disorders ([6]; % of patients, N = 73, 34 patients): 46.6%
related AEs by SOC: skin and subcutaneous tissue disorders ([6]; % of patients, N = 73, 35 patients): 47.9%
related AEs by SOC: blood and lymphatic system disorders ([6]; % of patients, N = 73, 37 patients): 50.7%
related AEs by SOC: general disorders and administration site reactions ([6]; % of patients, N = 73, 42 patients): 57.5%
AEs: skin and subcutaneous disorders ([6]; % of patients, N = 73, 44 patients): 60.3%
AEs: gastrointestinal disorders ([6]; % of patients, N = 73, 45 patients): 61.6%
AEs: general disorders and administration site reactions ([6]; % of patients, N = 73, 50 patients): 68.5%
AEs: nervous system disorders including peripheral neuropathy ([6]; % of patients, N = 73, 57 patients): 78.1%
SAEs related to ANG1005: patients reporting at least one related SAE [6, 8]: 28.8%
SAEs: patients reporting at least one event [6, 8]: 45.2%
treatment discontinued due to AEs ([6]; % of subjects, N = 73, 7 subjects): 9.6%
number of AEs that led to death ([6]; Arm 3 (hydrocephalus)): one
patients who experienced at least one AE ([6]; N = 73, all arms): All patients
number of AEs that led to death ([6]; all arms, N = 73, only septic shock considered potentially related to ANG1005): 3
